The results in this text go back to publication PMC7791843, “Production of 10-methyl branched fatty acids in yeast” (Biotechnology for Biofuels, 2021).

The assay concerns the target T1, T. curvata BfaA (Thermomonospora curvata, UniProt D1ABB3).
T1 construct: gene Tcur_1573; native gene from genomic DNA (DSMZ), plasmid pNC964 (strain NS1164), crude E. coli cell-free extract
T1 sequence (D1ABB3 1-455): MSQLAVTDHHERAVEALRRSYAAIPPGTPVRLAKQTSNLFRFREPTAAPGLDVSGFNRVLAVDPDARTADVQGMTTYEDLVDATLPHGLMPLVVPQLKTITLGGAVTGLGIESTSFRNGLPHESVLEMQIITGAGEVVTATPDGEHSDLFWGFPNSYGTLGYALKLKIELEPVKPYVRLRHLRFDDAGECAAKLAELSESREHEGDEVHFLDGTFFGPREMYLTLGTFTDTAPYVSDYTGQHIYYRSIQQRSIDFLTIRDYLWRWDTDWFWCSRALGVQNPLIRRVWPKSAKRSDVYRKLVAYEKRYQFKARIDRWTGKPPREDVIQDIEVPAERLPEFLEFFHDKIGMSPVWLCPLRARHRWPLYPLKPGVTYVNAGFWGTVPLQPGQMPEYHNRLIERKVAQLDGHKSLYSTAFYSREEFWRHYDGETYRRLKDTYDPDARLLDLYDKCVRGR
In words: crude extract assay, GC-FID of 10-methyl fatty acid. Format: biochemical. The settings on record: 10 mM NADPH, 37 °C, 16 h; heat-inactivated BfaB lysate with 10-methylene acyl chains.

`NC(=O)C1=CN([C@@H]2O[C@H](COP(=O)(O)OP(=O)(O)OC[C@H]3O[C@@H](n4cnc5c(N)ncnc54)[C@H](OP(=O)(O)O)[C@@H]3O)[C@@H](O)[C@H]2O)C=CC1` [NADPH]: the “crude extract assay, GC-FID of 10-methyl fatty acid” value is given as “We detected 10-methylstearic acid production in the presence of NADPH, but not NADH”.
